Results from patent USRE39061E1, “Pharmaceutical formulations comprising labdanes for the treatment of tumors or leukemias” (Medexis S.A., priority 1999, dated 2006).

Experiments:
CCRF-CEM = experiment: Cytotoxic activity, MTT method, 48 h; assay type: cell-based; conditions: for GI50 / TGI: CCRF-CEM, 48 h, MTT
Experimental: (§1) Human cancer cell lines were used for in vitro drug testing. The cells were maintained as exponentially proliferating suspension cultures in RPMI-1640 medium (supplemented with 10% heat inactivated foetal calf serum, 2mM L-Glutamine and 50 μg/ml gentamycin and incubated at 37° C., in a humidified atmosphere with 5% CO2. Peripheral blood mononuclear cells (PBML) were also isolated from normal donors using the Ficoll-Hypaque method and cultured as the cancer cell lines.
(§2) To determine the cytotoxicity, log-phase cells from each cell line, resting and activated PBML (1×10^6 cells/ml), were incubated with free compound or liposomal formulation for 48 h, in 96-well flat-bottomed micro plates.
(§3) The initial inoculation densities for each cell line are presented in table (1) and were determined taking into account cell mass and growth rate (Monks A., Scudiero, D., Skehan P., Shomaker R., Pauli K., Vistica D., Hose C et al. Feasibility of a High-Flux Anticancer Drug screen using a diverse panel of cultured human tumor cell lines. JNCI 1991; 83(11): 757-766 Paul K D, Shomaker R H, Hodes L, Monks A, Scudiero D A, Rubinstein L., Plowman J and Boyd M R. Tumor Cell Lines: Development of Mean Graph and Compare Algorithm. JNCI 1989; 81(14): 1088-1092). Viability of the cells was assessed by trypan blue dye exclusion, at the beginning of the experiment and was always greater than 98%.
(§4) Cells were added at the appropriate inoculation densities in 96-well micro titer plates and preincubated for 24 hours in a moist atmosphere of 5% CO2 in air at 37 °C, to allow stabilization prior to addition of the test compounds. To determine their activity, the free compound or liposomal formulation were added at the same time to each cell line. Cultures, where an equivalent amount of DMSO was added, used as controls. After the addition of the test agents the cells were cultured in micro plates for an additional 48 h under the same conditions. Each test agent was inoculated at five concentrations (10−4 to 10−8 M). The activity for each compound on each cell line was determined by the MTT method with modifications. Briefly 4 h before the end of the 48 h incubation period, MTT (3-(4,5-dimethylthiazol-2-yl)-2-5 diphenyl tetrazolium bromide, Sigma-Aldrich) dissolved in PBS (Phosphate buffered saline), was added in the cell cultures to give a final concentration of 50 μg/ml. At the end of the 48 h incubation period, DMSO was added to the wells and the optical density was measured with an ANTHOS HT II Microelisa reader, using a test wavelength of 550 nm.
(§5) The data represent the means of experiments done in triplicates and were analyzed using a two-tailed Student's t-test.
(§6) Three parameters GI50, TGI and LC50 were estimated using the MTT method. […] TGI is the concentration of the test agent where 100*(T−T0)/(C−TO)=0 and measures the cytostatic effect. Finally LC50 is the concentration of the drug where 100*(T−TO)/TO=−50 and measures the cytotoxic effect of the drug. At the above formulas used for the calculation of the three parameters, T is the optical density of the test well after a 48 h period of exposure to test compound; TO is the optical density at the time zero (when the drug is added) and C is the optical density of the control well (cells incubated for 48 h with no additives).
(§7) The leukemic cell lines CCRF-CEM, MOLT4, HUT78 (T cells), RPMI 8226 (B cell line), HL60 (promyelocytic cell line), K562 (proerythrocytes) and the multi-drug resistant (MDR) cell lines: CCRF-CEM/C2, HL60/MXl and HL601MX2 were used. All cell lines were grown and tested for viability as described above. Free compounds and encapsulated (as described above) were tested according to the method described under cytotoxic activity (see Biological activity, above).

HL60 = experiment: Cytotoxic activity, MTT method, 48 h; assay type: cell-based; conditions: for GI50 / TGI: HL60, 48 h, MTT
Experimental: as §1, §2, §3, §4, §5, §6, §7

HUT78 = experiment: Cytotoxic activity, MTT method, 48 h; assay type: cell-based; conditions: for GI50 / TGI: HUT78, 48 h, MTT
Experimental: as §1, §2, §3, §4, §5, §6, §7

K562 = experiment: Cytotoxic activity, MTT method, 48 h; assay type: cell-based; conditions: for GI50 / TGI: K562, 48 h, MTT
Experimental: as §1, §2, §3, §4, §5, §6, §7

MOLT4 = experiment: Cytotoxic activity, MTT method, 48 h; assay type: cell-based; conditions: for GI50 / TGI: MOLT4, 48 h, MTT
Experimental: as §1, §2, §3, §4, §5, §6, §7

RPMI 8226 = experiment: Cytotoxic activity, MTT method, 48 h; assay type: cell-based; conditions: for GI50 / TGI: RPMI 8226, 48 h, MTT
Experimental: as §1, §2, §3, §4, §5, §6, §7

CCRF-CEM/C2 = assay type: cell-based; conditions: for GI50 / TGI: CCRF-CEM/C2 (MDR), 48 h, MTT
Experimental: as §1, §2
(§8) The initial inoculation densities for each cell line are presented in table (1) and were determined taking into account cell mass and growth rate (Monks A., Scudiero, D., Skehan P., Shomaker R., Pauli K., Vistica D., Hose C et al. Feasibility of a High-Flux Anticancer Drug screen using a diverse panel of cultured human tumor cell lines. JNCI 1991; 83(11): 757-766 Paul K D, Shomaker R H, Hodes L, Monks A, Scudiero D A, Rubinstein L., Plowman J and Boyd M R. Tumor Cell Lines: Development of Mean Graph and Compare Algorithm. JNCI 1989; 81(14): 1088-1092).
as §4, §5, §6, §7
(§9) The Resistant Factor (RF) is defined as follows: GI50 of the MDR daughter cell line/GI50 of the parental cell line. The (−) represents a parental cell line more resistant than the daughter MDR line.

HL60/MX1 = assay type: cell-based; conditions: for GI50 / TGI: HL60/MX1 (MDR), 48 h, MTT
Experimental: as §1, §2, §8, §4, §5, §6, §7, §9

HL601/MX2 = assay type: cell-based; conditions: for GI50 / TGI: HL601/MX2 (MDR), 48 h, MTT
Experimental: as §1, §2, §8, §4, §5, §6, §7, §9

[1] = system: leukemic cell lines (MEAN); experiment: Cytotoxic activity, MTT method, mean over the leukemic cell lines; assay type: cell-based; conditions: for GI50 / TGI: MEAN of the nine leukemic cell lines
Experimental: as §1, §2, §3, §4, §5, §6, §7

PBML (resting) = assay type: cell-based, human; conditions: for GI50 / TGI: normal PBML, resting, 48 h, MTT
Experimental: as §1, §2, §4, §5, §6, §7

PBML (stimulating) = assay type: cell-based, human; conditions: for GI50 / TGI: normal PBML, activated by 5 μg/ml PHA-P, 48 h, MTT
Experimental: as §1, §2, §4, §5, §6, §7

MCF-7 (Breast cancer) = experiment: Growth percentages at 100 μM; assay type: cell-based, human
Experimental: as §1, §4
(§10) Three parameters GI50, TGI and LC50 were estimated using the MTT method. […] TGI is the concentration of the test agent where 100*(T−T0)/(C−TO)=0 and measures the cytostatic effect. Finally LC50 is the concentration of the drug where 100*(T−TO)/TO=−50 and measures the cytotoxic effect of the drug. […]

NCI-H460 (Lung cancer) = experiment: Growth percentages at 100 μM; assay type: cell-based, human
Experimental: as §1, §4, §10

SF-268 (CNS cancer) = experiment: Growth percentages at 100 μM; assay type: cell-based, human
Experimental: as §1, §4, §10

Row | Compound | CC50 (CCRF-CEM) [µM] | GI50 (CCRF-CEM) [µM] | TGI (CCRF-CEM) [µM] | CC50 (HL60) [µM] | GI50 (HL60) [µM] | TGI (HL60) [µM] | CC50 (HUT78) [µM] | GI50 (HUT78) [µM] | TGI (HUT78) [µM] | CC50 (K562) [µM] | GI50 (K562) [µM] | TGI (K562) [µM] | CC50 (MOLT4) [µM] | GI50 (MOLT4) [µM] | TGI (MOLT4) [µM] | CC50 (RPMI 8226) [µM] | GI50 (RPMI 8226) [µM] | TGI (RPMI 8226) [µM] | CC50 (CCRF-CEM/C2) [µM] | GI50 (CCRF-CEM/C2) [µM] | further results
1 | CC(=CCO)CC[C@@H]1[C@@]2(C)CCCC(C)(C)[C@@H]2CC[C@@]1(C)O [Label-13-ene-8, 15 diol, labd-13-ene-8α,15-diol] | 200 | 75.7 | 141.08 | 91.8 | 47.7 | 69.74 | 200 | 109 | 186 | 200 | 87.1 | 159 | 120 | 32.3 | 76.22 | 118 | 42.2 | 80.08 | 108 | 42.3 | TGI (CCRF-CEM/C2): 74.96 µM; CC50 (HL60/MX1): 108 µM; GI50 (HL60/MX1): 52.3 µM; TGI (HL60/MX1): 80.1 µM; CC50 (HL601/MX2): 102 µM; GI50 (HL601/MX2): 43.8 µM; TGI (HL601/MX2): 73.14 µM; CC50 [1]: 139 µM; GI50 [1]: 59.1 µM; TGI [1]: 104.48 µM; CC50 (PBML (resting)): > 100 µM; GI50 (PBML (resting)): > 100 µM; TGI (PBML (resting)): >>100 μM; CC50 (PBML (stimulating)): > 100 µM; GI50 (PBML (stimulating)): 66.2 µM; TGI (PBML (stimulating)): >>100 μM; Growth Percentages (MCF-7 (Breast cancer)): −89%; Growth Percentages (NCI-H460 (Lung cancer)): −80%; Growth Percentages (SF-268 (CNS cancer)): −88%
2 | CC(=O)OCC=C(C)CC[C@@H]1[C@@]2(C)CCCC(C)(C)[C@@H]2CC[C@@]1(C)O [Label-13-ene-8, 15-yl acetate, labd-13-ene,8α-ol,15-yl acetate] | 187 | 69.1 | 128.17 | 89.3 | 44.8 | 67.04 | 200 | 95.2 | 164.00 | 200 | 78.2 | 162.00 | 137 | 42.8 | 89.95 | 95.5 | 41.3 | 68.43 | 111 | 46.8 | TGI (CCRF-CEM/C2): 78.83 µM; CC50 (HL60/MX1): 106 µM; GI50 (HL60/MX1): 53.9 µM; TGI (HL60/MX1): 80.14 µM; CC50 (HL601/MX2): 101 µM; GI50 (HL601/MX2): 38.8 µM; TGI (HL601/MX2): 69.90 µM; CC50 [1]: 136 µM; GI50 [1]: 56.8 µM; TGI [1]: 100.94 µM; CC50 (PBML (resting)): > 100 µM; GI50 (PBML (resting)): > 100 µM; TGI (PBML (resting)): >>100 μM; CC50 (PBML (stimulating)): > 100 µM; GI50 (PBML (stimulating)): 65.9 µM; TGI (PBML (stimulating)): >>100 μM
3 | C=C[C@](C)(O)CC[C@@H]1[C@@]2(C)CCCC(C)(C)[C@@H]2CC[C@@]1(C)O [Label-14-ene-8, 13 diol, labd-14-ene-8,13-diol] | 85 | 35 | 60.00 | 80 | 41.5 | 60.72 | 78.5 | 33.7 | 56.09 | 79.3 | 35.6 | 57.45 | 77.7 | 31.6 | 54.66 | 70.7 | 14.9 | 42.84 | 75.8 | 29.1 | TGI (CCRF-CEM/C2): 52.41 µM; CC50 (HL60/MX1): 80.9 µM; GI50 (HL60/MX1): 42.9 µM; TGI (HL60/MX1): 61.90 µM; CC50 (HL601/MX2): 76.8 µM; GI50 (HL601/MX2): 31.4 µM; TGI (HL601/MX2): 54.12 µM; CC50 [1]: 78.3 µM; GI50 [1]: 32.9 µM; TGI [1]: 55.58 µM; CC50 (PBML (resting)): 93.1 µM; GI50 (PBML (resting)): 34.6 µM; TGI (PBML (resting)): 63.8 µM; CC50 (PBML (stimulating)): 89 µM; GI50 (PBML (stimulating)): 33.1 µM; TGI (PBML (stimulating)): 61.0 µM
